The structures appear in SMILES notation. Where a name gives a salt, the structure may show the parent alone.

Data on one molecule can be found in patent US7300947B2, “N-dihydroxyalkyl-substituted 2-oxo-imidazole derivatives” (Banyu Pharmaceutical Co., Ltd., priority 2005, dated 2007).

This data set can be described thus: Metabolic stability test using human liver microsome. The data set is classed as in vitro ADME. The following applies: human liver microsome 0.25 mg protein/mL, 1 μM test compound, 37° C., after 30 minutes' reaction.

Experimental: Pharmacological Test Example 3 (Metabolic Stability Test) Metabolic stability of test compounds was examined using human liver microsome. A 100 mM potassium phosphate buffer (pH 7.4) comprising 10 mM [MUT], 1.0 mM NADP^+, 10 units/mL [MUT] DH, 3.0 mM MgCl2 and 0.25 mg protein/mL of human liver microsome was prepared, each 392 μL of which was poured into plural vessels and preincubated at 37° C. for 5 minutes. […] At the initiation time and 30 minutes thereafter of the reaction, 150 μL of each reaction solution was added to 450 μL of ethanol to suspend the reaction, followed by centrifugal separation (12,000 g, 12 minutes, 4° C.). Resulting supernatant was analyzed with LC/MS/MS. Based on the peak area of the test compound in each sample at the initiating time of the reaction as 100%, the test compound's residual ratio in the sample after 30 minutes' reaction was calculated. Residual ratio(%)= [peak area(after 30 minutes' reaction)/ peak area(0 minute's reaction)]×100.

For the molecule `CC(O)(CO)Cn1c(=O)n(C2CCN(CC3CCCCC34CC4)CC2)c2ccccc21` (single isomer, unassigned) [Example 4, 1-[(2S or 2R)-2,3-dihydroxy-2-methylpropyl]-3-{1-[(4S)-spiro[2.5]oct-4-ylmethyl]piperidin-4-yl}-1,3-dihydro-2H-benzimidazol-2-one(2R,3R)-3-carboxy-2,3-dihydroxypropionic acid salt], the “Residual Ratio” value was found to be 72%.
